# Where a SMILES comes first, the peptide text is derived from it.
# Key:
# [1] = test system: Escherichia coli MCR-1 Af 45; details: Mueller-Hinton broth II, no visible growth after 18-20 hours at 35° C.
# In short: (§1)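 Activity is measured against peptides serially diluted two-fold in water with 0.002% final Polysorbate 80. The cells are in cation-adjusted MHII broth at roughly 5×10^5 CFU/mL, prepared from a 0.5 McFarland suspension in 0.85% NaCl.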
# [2] = test system: Klebsiella pneumoniae SSI3010; details: SSI3010
# In short: as §1
# [3] = test system: Escherichia coli ATCC 25922; details: ATCC 25922
# In short: as §1
# [4] = test system: human red blood cells (hRBC); format: cell-based; details: red cells of human, 1 h, 0.2 g/L
# In short: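 PBS-washed human erythrocytes (20% v/v) were incubated with compounds at 200 μg/mL for 1 h at 37° C with shaking. Supernatant OD540 was read after 8-fold dilution; hemolysis % = OD540 peptide / OD540 of the 100% lysis control (2.5% Triton X-100 in H2O) ×100, with PBS as 0%.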
SMILES,Escherichia coli MCR-1 Af 45 MIC [1] [µg/mL],Klebsiella pneumoniae SSI3010 MIC [2] [µg/mL],Escherichia coli ATCC 25922 MIC [3] [µg/mL],Hemolysis at 0.2 g/L [4] [%]
"CC[C@H](C)[C@@H]1NC(=O)[C@@H](NC(=O)[C@H](Cc2ccc(O)cc2)NC(=O)[C@@H](NC(=O)[C@@H](NC(=O)[C@@H]2C[C@@H](O)CN2C(=O)[C@@H](N)C(C)C)[C@@H](C)CC)[C@@H](C)O)C(C)(C)SSC[C@@H](C(=O)N[C@@H](CO)C(=O)N[C@@H](CCCN)C(=O)N[C@@H](Cc2ccc(O)cc2)C(=O)O)NC(=O)[C@H](CCCCN)NC(=O)[C@@H](CCN)NC(=O)[C@H]([C@@H](C)O)NC(=O)[C@H](CCN)NC(=O)[C@H](CCCNC(=N)N)NC1=O [Example 92, Val-Hyp-Ile-Thr-Tyr-Pen-Ile-Arg-Dab-Thr-^DDab-Lys-Cys-Ser-Orn-Tyr] (HELM PEPTIDE1{V.[Hyp].I.T.Y.[Pen].I.R.[Dab].T.[NCC[C@@H](N[*:1])C(=O)[*:2]].K.C.S.[Orn].Y}$PEPTIDE1,PEPTIDE1,6:R3-13:R3$$$V2.0)",0.125,0.5,0.25,<1
"CC[C@H](C)[C@H](NC(=O)[C@@H](NC(=O)[C@@H]1C[C@@H](N)CN1C(=O)[C@@H](N)C(C)C)[C@@H](C)CC)C(=O)N[C@@H](Cc1ccc(O)cc1)C(=O)N[C@@H]1C(=O)N[C@@H](CC(N)=O)C(=O)N[C@@H](CCCNC(=N)N)C(=O)N[C@@H](CCN)C(=O)N[C@@H]([C@@H](C)O)C(=O)N[C@H](CCN)C(=O)N[C@@H](CCCCN)C(=O)N[C@H](C(=O)N[C@@H](CO)C(=O)N[C@@H](CCCNC(=N)N)C(=O)N[C@@H](Cc2ccc(O)cc2)C(=O)O)CSSC1(C)C [Example 93, Val-Pro((4R)NH2)-Ile-Ile-Tyr-Pen-Asn-Arg-Dab-Thr-^DDab-Lys-Cys-Ser-Arg-Tyr] (HELM PEPTIDE1{V.[N[C@@H]1C[C@@H](C(=O)[*:2])N([*:1])C1].I.I.Y.[Pen].N.R.[Dab].T.[NCC[C@@H](N[*:1])C(=O)[*:2]].K.C.S.R.Y}$PEPTIDE1,PEPTIDE1,6:R3-13:R3$$$V2.0)",0.0625,0.25,0.25,<1
"CC[C@H](C)[C@H](NC(=O)[C@@H]1C[C@@H](O)CN1C(=O)[C@@H](N)C(C)C)C(=O)N[C@H](C(=O)N[C@@H](Cc1ccc(O)cc1)C(=O)N[C@@H]1C(=O)N[C@@H](CC(N)=O)C(=O)N[C@@H](CCCNC(=N)N)C(=O)N[C@@H](CCN)C(=O)N[C@@H](CO)C(=O)N[C@H](CCN)C(=O)N[C@@H](CCCCN)C(=O)N[C@H](C(=O)N[C@@H](CCN)C(=O)N[C@@H](CCCN)C(=O)N[C@@H](Cc2ccc(O)cc2)C(=O)O)CSSC1(C)C)[C@@H](C)O [Example 94, Val-Hyp-Ile-Thr-Tyr-Pen-Asn-Arg-Dab-Ser-^DDab-Lys-Cys-Dab-Orn-Tyr] (HELM PEPTIDE1{V.[Hyp].I.T.Y.[Pen].N.R.[Dab].S.[NCC[C@@H](N[*:1])C(=O)[*:2]].K.C.[Dab].[Orn].Y}$PEPTIDE1,PEPTIDE1,6:R3-13:R3$$$V2.0)",0.0625,0.25,0.0625,<1
"CC[C@H](C)[C@@H]1NC(=O)[C@@H](NC(=O)[C@H](Cc2ccc(O)cc2)NC(=O)[C@@H](NC(=O)[C@@H](NC(=O)[C@@H]2C[C@@H](O)CN2C(=O)[C@@H](N)C(C)(C)C)[C@@H](C)CC)[C@@H](C)O)C(C)(C)SSC[C@@H](C(=O)N[C@@H](CCN)C(=O)N[C@@H](CCCN)C(=O)N[C@@H](Cc2ccc(O)cc2)C(=O)O)NC(=O)[C@H](CCCCN)NC(=O)[C@@H](CCN)NC(=O)[C@H]([C@@H](C)O)NC(=O)[C@H](CCN)NC(=O)[C@H](CCCNC(=N)N)NC1=O [Example 95, tBuGly-Hyp-Ile-Thr-Tyr-Pen-Ile-Arg-Dab-Thr-^DDab-Lys-Cys-Dab-Orn-Tyr] (HELM PEPTIDE1{[CC(C)(C)[C@H](N)C(=O)[*:2]].[Hyp].I.T.Y.[Pen].I.R.[Dab].T.[NCC[C@@H](N[*:1])C(=O)[*:2]].K.C.[Dab].[Orn].Y}$PEPTIDE1,PEPTIDE1,6:R3-13:R3$$$V2.0)",0.125,0.25,0.125,<1
"CC[C@H](C)[C@H](NC(=O)[C@@H](NC(=O)[C@@H]1C[C@@H](O)CN1C(=O)[C@@H](N)C(C)C)[C@@H](C)CC)C(=O)N[C@@H](Cc1ccc(O)cc1)C(=O)N[C@@H]1C(=O)N[C@@H](CC(N)=O)C(=O)N[C@@H](CCCNC(=N)N)C(=O)N[C@@H](CCN)C(=O)N[C@@H](CO)C(=O)N[C@H](CCN)C(=O)N[C@@H]([C@@H](C)CC)C(=O)N[C@H](C(=O)N[C@@H](CCN)C(=O)N[C@@H](CCCN)C(=O)N[C@@H](Cc2ccc(O)cc2)C(=O)O)CSSC1(C)C [Example 96, Val-Hyp-Ile-Ile-Tyr-Pen-Asn-Arg-Dab-Ser-^DDab-Ile-Cys-Dab-Orn-Tyr] (HELM PEPTIDE1{V.[Hyp].I.I.Y.[Pen].N.R.[Dab].S.[NCC[C@@H](N[*:1])C(=O)[*:2]].I.C.[Dab].[Orn].Y}$PEPTIDE1,PEPTIDE1,6:R3-13:R3$$$V2.0)",0.25,0.5,0.25,<1
"CC[C@H](C)[C@H](NC(=O)[C@@H](NC(=O)[C@@H]1C[C@@H](O)CN1C(=O)[C@@H](N)C(C)C)[C@@H](C)CC)C(=O)N[C@@H](Cc1ccc(O)cc1)C(=O)N[C@@H]1C(=O)N[C@@H](CC(N)=O)C(=O)N[C@@H](CCCNC(=N)N)C(=O)N[C@@H](CCN)C(=O)N[C@@H]([C@@H](C)O)C(=O)N[C@H](CCN)C(=O)N[C@@H]([C@@H](C)CC)C(=O)N[C@H](C(=O)N[C@@H](CCN)C(=O)N[C@@H](CCCN)C(=O)N[C@@H](Cc2ccc(O)cc2)C(=O)O)CSSC1(C)C [Example 97, Val-Hyp-Ile-Ile-Tyr-Pen-Asn-Arg-Dab-Thr-^DDab-Ile-Cys-Dab-Orn-Tyr] (HELM PEPTIDE1{V.[Hyp].I.I.Y.[Pen].N.R.[Dab].T.[NCC[C@@H](N[*:1])C(=O)[*:2]].I.C.[Dab].[Orn].Y}$PEPTIDE1,PEPTIDE1,6:R3-13:R3$$$V2.0)",0.25,0.5,0.25,<1
"CC[C@H](C)[C@H](NC(=O)[C@@H](NC(=O)[C@@H]1C[C@@H](O)CN1C(=O)[C@@H](N)C(C)C)[C@@H](C)CC)C(=O)N[C@@H](Cc1ccc(O)cc1)C(=O)N[C@@H]1C(=O)N[C@@H](CC(N)=O)C(=O)N[C@@H](CCCNC(=N)N)C(=O)N[C@@H](CCN)C(=O)N[C@@H]([C@@H](C)O)C(=O)N[C@H](CCN)C(=O)N[C@@H](CCCNC(N)=O)C(=O)N[C@H](C(=O)N[C@@H](CCN)C(=O)N[C@@H](CCCNC(=N)N)C(=O)N[C@@H](Cc2ccc(O)cc2)C(=O)O)CSSC1(C)C [Example 98, Val-Hyp-Ile-Ile-Tyr-Pen-Asn-Arg-Dab-Thr-^DDab-Cit-Cys-Dab-Arg-Tyr] (HELM PEPTIDE1{V.[Hyp].I.I.Y.[Pen].N.R.[Dab].T.[NCC[C@@H](N[*:1])C(=O)[*:2]].[Cit].C.[Dab].R.Y}$PEPTIDE1,PEPTIDE1,6:R3-13:R3$$$V2.0)",0.25,0.5,0.25,<1
"CC[C@H](C)[C@@H]1NC(=O)[C@@H](NC(=O)[C@H](Cc2ccc(O)cc2)NC(=O)[C@@H](NC(=O)[C@@H](NC(=O)[C@@H]2C[C@@H](O)CN2C(=O)[C@@H](N)C(C)C)[C@@H](C)CC)[C@@H](C)O)C(C)(C)SSC[C@@H](C(=O)N[C@@H](CCN)C(=O)N[C@@H](CO)C(=O)N[C@@H](Cc2ccc(O)cc2)C(=O)O)NC(=O)[C@H](CCCCN)NC(=O)[C@@H](CCN)NC(=O)[C@H]([C@@H](C)O)NC(=O)[C@H](CCN)NC(=O)[C@H](CCCNC(=N)N)NC1=O [Example 99, Val-Hyp-Ile-Thr-Tyr-Pen-Ile-Arg-Dab-Thr-^DDab-Lys-Cys-Dab-Ser-Tyr] (HELM PEPTIDE1{V.[Hyp].I.T.Y.[Pen].I.R.[Dab].T.[NCC[C@@H](N[*:1])C(=O)[*:2]].K.C.[Dab].S.Y}$PEPTIDE1,PEPTIDE1,6:R3-13:R3$$$V2.0)",0.125,0.25,0.125,<1
"CC[C@H](C)[C@H](NC(=O)[C@@H](NC(=O)[C@@H]1C[C@@H](N)CN1C(=O)[C@@H](N)C(C)C)[C@@H](C)CC)C(=O)N[C@@H](Cc1ccc(O)cc1)C(=O)N[C@@H]1C(=O)N[C@@H](CC(N)=O)C(=O)N[C@@H](CCCNC(=N)N)C(=O)N[C@@H](CCN)C(=O)N[C@@H]([C@@H](C)O)C(=O)N[C@H](CCN)C(=O)N[C@@H](CCCCN)C(=O)N[C@H](C(=O)N[C@@H](CCN)C(=O)N[C@@H](CO)C(=O)N[C@@H](Cc2ccc(O)cc2)C(=O)O)CSSC1(C)C [Example 100, Val-Pro((4R)NH2)-Ile-Ile-Tyr-Pen-Asn-Arg-Dab-Thr-^DDab-Lys-Cys-Dab-Ser-Tyr] (HELM PEPTIDE1{V.[N[C@@H]1C[C@@H](C(=O)[*:2])N([*:1])C1].I.I.Y.[Pen].N.R.[Dab].T.[NCC[C@@H](N[*:1])C(=O)[*:2]].K.C.[Dab].S.Y}$PEPTIDE1,PEPTIDE1,6:R3-13:R3$$$V2.0)",0.0625,0.25,0.25,<1
